Measured values taken from patent US10613104B2, “Assay to determine anticoagulants in blood or blood plasma” (ZAFENA AB, priority 2014, dated 2020).

Test system: prothrombin time (PT) of normal plasma NKP
Assay: Three wet-chemistry Owren PT methods (Simple Simon PT; 20, 10, 5 μL sample in 200 μL reagent) on normal plasma NKP with added anticoagulant
Assay type: biochemical
Method: Experimental work was performed with the commercially available ambient room temperature coagulation instrument, Simple Simon P T Zafena A B, Linköping, Sweden, with functions described in EP 1 636 595 B2. One instrument or reader was used for each PT-method. Alternatively, the same instrument could be used for all PT-methods.
The three instruments were used together standing next to one another on a laboratory bench in thermal equilibrium with the ambient room temperature of the laboratory.
The ambient room temperature in the laboratory where the work was done varied between 21° C. and 26° C.
The PT-reagent was the one delivered together with lot N223M of the Simple Simon PT product, a reagent of Owren-type that thus contains effective amounts of thromboplastin, fibrinogen and FV (the thromboplastin of rabbit brain origin and the fibrinogen and the FV of bovine blood plasma origin). Other Owren type reagents could also be used.
The reagent was in portions of 200 μL to which sample, citrated blood or citrated blood plasma, was added and mixed. The addition was by an end-to-end plastic capillary mounted at one end of a tubular body with a displacement mechanism in the other end, this to allow convenient mixing of sample and reagent. Such Mixxocaps with 10 μL capillaries are supplied with the Simple Simon PT product. To perform the experiments described, some Mixxocaps were fitted with 20 μL capillaries, or 5 μL capillaries instead of the 10 μL capillaries with which they were supplied by the manufacturer.
The ratios between the volume of blood or blood plasma to the volume of liquid reagent used in the experiments were 1:11, 1:21 and 1:41. Other ratios lying within the range of 1:5 and 1:100 or within the range of 1:2 and 1:200 could be used.
Anticoagulated normal plasma was the NKP product GHI-163 lot 10188, MediRox AB, Nyköping, Sweden.
It was further relevant that all three PT-methods were calibrated, according to the invention, to show INR 1.000 for unadulterated NKP, and INR 1.357 for the NKP 1:2. All primary INR values, the results that appeared on the instrument screens (one instrument or reader was used for each PT-method), were therefore transformed to the corrected/calibrated INRc by the formula A*INRexp(B) where a and b were selected to given NKP and NKP 1:2 their desired values, 1.000 and 1.357, respectively. The INR-value of the NKP 1:2 was calculated by the formula of Lindahl et al for the INR of corresponding to PT-activity of 50% (half of the 100% that equates to INR 1.000). Above the INR calibrated columns (INRc) there is an upper number and a lower number, these are the above mentioned A and B, respectively.
As deemed relevant the upper number is selected to make NKP 1:2 to show INRc 1.357.
Clinical levels of interest range from 50 to 1000 μg/L in blood plasma.
In the selected calibration INR 1.000 and INR 1.357 were assigned to NKP and NKP 1:2, respectively, which was the same relevant calibration as selected in Examples 1 and 3 above.

[1] = apixaban 50 μg/L in NKP plasma, from PT (s)
[2] = apixaban 50 μg/L in NKP plasma, from instrument INR
[3] = apixaban 100 μg/L in NKP plasma
[4] = apixaban 100 μg/L in NKP plasma, from PT (s)
[5] = apixaban 100 μg/L in NKP plasma, from instrument INR
[6] = apixaban 200 μg/L in NKP plasma
[7] = apixaban 200 μg/L in NKP plasma, from PT (s)
[8] = apixaban 200 μg/L in NKP plasma, from instrument INR
[9] = apixaban 300 μg/L in NKP plasma
[10] = apixaban 300 μg/L in NKP plasma, from PT (s)
[11] = apixaban 300 μg/L in NKP plasma, from instrument INR
[12] = apixaban 400 μg/L in NKP plasma
[13] = apixaban 400 μg/L in NKP plasma, from PT (s)
[14] = apixaban 400 μg/L in NKP plasma, from instrument INR
[15] = apixaban 500 μg/L in NKP plasma
[16] = apixaban 500 μg/L in NKP plasma, from PT (s)
[17] = apixaban 500 μg/L in NKP plasma, from instrument INR
[18] = apixaban 600 μg/L in NKP plasma
[19] = apixaban 600 μg/L in NKP plasma, from PT (s)
[20] = apixaban 600 μg/L in NKP plasma, from instrument INR
[21] = apixaban 800 μg/L in NKP plasma
[22] = apixaban 800 μg/L in NKP plasma, from PT (s)
[23] = apixaban 800 μg/L in NKP plasma, from instrument INR
[24] = apixaban 1000 μg/L in NKP plasma
[25] = apixaban 1000 μg/L in NKP plasma, from PT (s)
[26] = apixaban 1000 μg/L in NKP plasma, from instrument INR

COc1ccc(-n2nc(C(N)=O)c3c2C(=O)N(c2ccc(N4CCCCC4=O)cc2)CC3)cc1 [apixaban]
INR 5 μL sample (apixaban 50 μg/L in NKP plasma): 1.12
INR 10 μL sample (apixaban 50 μg/L in NKP plasma): 1.18
INR 20 μL sample (apixaban 50 μg/L in NKP plasma): 1.28
PT (s) 5 μL sample (apixaban 50 μg/L in NKP plasma): 47.7 s
PT (s) 10 μL sample (apixaban 50 μg/L in NKP plasma): 39.1 s
PT (s) 20 μL sample (apixaban 50 μg/L in NKP plasma): 35.5 s
INRc 20 μL sample [1]: 1.23
ΔINRc 10 μL − 5 μL [1]: 0.04
ΔINRc 20 μL − 5 μL [1]: 0.19
INRc 20 μL sample [2]: 1.30
ΔINR 10 μL − 5 μL [2]: 0.07
ΔINR 20 μL − 5 μL [2]: 0.24
INR 5 μL sample [3]: 1.15
INR 10 μL sample [3]: 1.27
INR 20 μL sample [3]: 1.55
PT (s) 5 μL sample [3]: 49.1 s
PT (s) 10 μL sample [3]: 41.5 s
PT (s) 20 μL sample [3]: 39.3 s
INRc 20 μL sample [4]: 1.61
ΔINRc 10 μL − 5 μL [4]: 0.12
ΔINRc 20 μL − 5 μL [4]: 0.53
INRc 10 μL sample [5]: 1.24
INRc 20 μL sample [5]: 1.67
ΔINR 10 μL − 5 μL [5]: 0.15
ΔINR 20 μL − 5 μL [5]: 0.58
INR 5 μL sample [6]: 1.29
INR 10 μL sample [6]: 1.53
INR 20 μL sample [6]: 2.12
PT (s) 5 μL sample [6]: 54.4 s
PT (s) 10 μL sample [6]: 47.9 s
PT (s) 20 μL sample [6]: 46.7 s
INRc 5 μL sample [7]: 1.20
INRc 20 μL sample [7]: 2.53
ΔINRc 10 μL − 5 μL [7]: 0.31
INRc 5 μL sample [8]: 1.22
INRc 10 μL sample [8]: 1.55
INRc 20 μL sample [8]: 2.51
ΔINR 10 μL − 5 μL [8]: 0.34
ΔINR 20 μL − 5 μL [8]: 1.30
INR 5 μL sample [9]: 1.44
INR 10 μL sample [9]: 1.82
INR 20 μL sample [9]: 2.82
PT (s) 5 μL sample [9]: 60.6 s
PT (s) 10 μL sample [9]: 54.6 s
PT (s) 20 μL sample [9]: 54.8 s
INRc 5 μL sample [10]: 1.35
INRc 10 μL sample [10]: 1.88
INRc 20 μL sample [10]: 3.85
ΔINRc 10 μL − 5 μL [10]: 0.53
ΔINRc 20 μL − 5 μL [10]: 2.50
INRc 5 μL sample [11]: 1.35
INRc 10 μL sample [11]: 1.91
INRc 20 μL sample [11]: 3.66
ΔINR 10 μL − 5 μL [11]: 0.56
ΔINR 20 μL − 5 μL [11]: 2.30
INR 5 μL sample [12]: 1.58
INR 20 μL sample [12]: 3.68
PT (s) 5 μL sample [12]: 66.3 s
PT (s) 10 μL sample [12]: 62.3 s
PT (s) 20 μL sample [12]: 63.5 s
INRc 5 μL sample [13]: 1.48
INRc 20 μL sample [13]: 5.66
ΔINRc 10 μL − 5 μL [13]: 0.86
ΔINRc 20 μL − 5 μL [13]: 4.18
INRc 5 μL sample [14]: 1.48
INRc 20 μL sample [14]: 5.18
ΔINR 10 μL − 5 μL [14]: 0.87
ΔINR 20 μL − 5 μL [14]: 3.70
INR 5 μL sample [15]: 1.73
INR 10 μL sample [15]: 2.37
INR 20 μL sample [15]: 4.47
PT (s) 5 μL sample [15]: 72.0 s
PT (s) 10 μL sample [15]: 67.0 s
PT (s) 20 μL sample [15]: 70.8 s
INRc 5 μL sample [16]: 1.62
INRc 10 μL sample [16]: 2.64
INRc 20 μL sample [16]: 7.54
ΔINRc 10 μL − 5 μL [16]: 1.02
ΔINRc 20 μL − 5 μL [16]: 5.92
INRc 5 μL sample [17]: 1.62
INRc 10 μL sample [17]: 2.63
INRc 20 μL sample [17]: 6.69
ΔINR 10 μL − 5 μL [17]: 1.02
ΔINR 20 μL − 5 μL [17]: 5.07
INR 5 μL sample [18]: 1.90
INR 10 μL sample [18]: 2.70
INR 20 μL sample [18]: 5.56
PT (s) 5 μL sample [18]: 78.8 s
PT (s) 10 μL sample [18]: 73.9 s
PT (s) 20 μL sample [18]: 79.9 s
INRc 5 μL sample [19]: 1.78
INRc 10 μL sample [19]: 3.10
INRc 20 μL sample [19]: 10.35
ΔINRc 10 μL − 5 μL [19]: 1.32
ΔINRc 20 μL − 5 μL [19]: 8.57
INRc 5 μL sample [20]: 1.77
INRc 10 μL sample [20]: 3.08
INRc 20 μL sample [20]: 8.91
ΔINR 10 μL − 5 μL [20]: 1.31
ΔINR 20 μL − 5 μL [20]: 7.14
INR 5 μL sample [21]: 2.22
INR 10 μL sample [21]: 3.35
INR 20 μL sample [21]: 7.81
PT (s) 5 μL sample [21]: 91.7 s
PT (s) 10 μL sample [21]: 87.2 s
PT (s) 20 μL sample [21]: 96.9 s
INRc 5 μL sample [22]: 2.09
INRc 20 μL sample [22]: 17.18
ΔINRc 10 μL − 5 μL [22]: 1.99
INRc 5 μL sample [23]: 2.06
INRc 20 μL sample [23]: 13.91
ΔINR 10 μL − 5 μL [23]: 1.94
ΔINR 20 μL − 5 μL [23]: 11.85
INR 5 μL sample [24]: 2.67
INR 20 μL sample [24]: 10.70
PT (s) 5 μL sample [24]: 111.2 s
PT (s) 10 μL sample [24]: 109.3 s
PT (s) 20 μL sample [24]: 117.4 s
INRc 20 μL sample [25]: 28.43
INRo [25]: 0.75
ΔINRc 10 μL − 5 μL [25]: 3.37
ΔINRc 20 μL − 5 μL [25]: 25.85
INRc 20 μL sample [26]: 21.03
INRo [26]: 0.78
ΔINR 10 μL − 5 μL [26]: 3.12
ΔINR 20 μL − 5 μL [26]: 18.56
content at which the INRc-difference (20 μL minus 5 μL) reaches 0.5 (normal plasma NKP, linear part of the graph (FIG. 8, FIG. 2)): about 80 μg/L
